Data from US20250019379A1, “NEW CRYSTAL FORM OF COMPOUND, AND PREPARATION METHOD THEREFOR AND USE THEREOF” (E-nitiate Biopharmaceuticals (Hangzhou) Co., Ltd, priority 2021, published 2025).
Several values for one entry are separate records, joined by “and”; a condition that tells them apart may be missing. Equal values may be shown once. Marks after values point to notes of the source that are not given here.

Tests used:
[1] = Hygroscopicity experiment; assay type: physicochemical; conditions: Chinese Pharmacopoeia 2020, General Chapter 9103
Experimental: The hygroscopicity data of the samples were collected using the ADVENTURE series dynamic gas phase adsorption instrument under N2 protection. The sample dosage is about 30 mg.
The hygroscopicity of the above crystalline form was determined with reference to the 2020 edition of the Chinese Pharmacopoeia, General Chapter 9103, Guidelines for Drug Hygroscopicity Tests.

[2] = Influencing factors test (light, high temperature, high humidity); assay type: physicochemical
Experimental: The stability of the crystalline form of the present invention under accelerated test conditions was determined. […] Stability testing was conducted under the following conditions, and samples were taken on the 0th day, the 5th day, the 10th day and the 30th day. The content, total impurities, and XRPD patterns of the samples were recorded and compared with the initial data.

[3] = Pharmacokinetic experiment; assay type: in vivo; conditions: SD rats, single intragastric administration
Experimental: 12 SD rats were divided into two groups, with 6 rats in each group, half male and half female, and each was given a single intragastric administration; blood was collected through the fundus venous plexus at designated time points, and the plasma was separated and stored in a −80° C. refrigerator.
For the above plasma sample, after protein precipitation with acetonitrile, the supernatant was diluted with water and 5 μL was transferred to LC-MS/MS for detection.

[4] = tested on: psoriasis animal model; experiment: Psoriasis animal model (imiquimod cream induced); assay type: in vivo, C57/BL 6J mice; conditions: for Inhibition rate of skin thickening: 7th day of treatment
Text: C57/BL 6J mice, 75, female, 7-8 weeks old, weight 18 g-20 g. The animals were from Zhejiang Weitong Lihua Experimental Animal Technology Co., Ltd. (SCXK (Zhejiang) 2019-0001), experimental animal production certificate number 20210107Abzz0619000247; experimental animal use license number: SYXK (Shanghai) 2020-0001 (Via Biotechnology (Shanghai Co., Ltd).
Modeling and administration method: Use depilatory cream to remove hair from an area of about 2 cm×3 cm on the back of each animal. Control the application time of depilatory cream within 2 minutes. Wash the depilated area with warm water, wash off the depilatory agent, and use immediately. Dry the animal's hair with a hair dryer, and place the animal on a constant-temperature electric blanket at 37° C. for 1 h-2 h. After the animal moves freely, it is placed in a cage for normal rearing and recovery for 1 day (if any animal has red, swollen and damaged skin after hair removal, remove it). On the second day, 54 animals with normal skin were selected and randomly grouped according to body weight, with 9 animals in each group, a total of 6 groups. Each animal in the G2-G6 group was evenly applied with 60 mg (60 μL) of 5 wt % imiquimod cream (Aldara) on the back every day for seven consecutive days.
Skin thickness (double-layer): Use a vernier caliper to measure the double-layer thickness of the back skin before drug administration and modeling, and on days 1, 3, 5, and 7 after drug administration.
PASI score: The condition score refers to the clinical PASI scoring standard, and scores three indicators: erythema, scale, and thickness. The total score is 12 points. The scoring standards are as follows:
Erythema: 0 points, none; 1 points, slight: light red; 2 points, moderate: red; 3 points, significant: dark red; 4 points, very obvious: extremely deep red.
Scaling: 0 points, none; 1 point, slight: there are scales on part of the epidermis, mainly fine scales; 2 points, moderate: most of the skin surface is completely or incompletely covered with scales, in a flaky form; 3 points, Significant: almost all skin is covered with scales, and the scales are thick and layered; 4 points, very obvious: all the skin is covered with scales, and the scales are thick and layered.
Plaque thickening degree: 0 points, none: flush with normal skin; 1 points, slight: slightly higher than the skin surface: 2 points, moderate: moderately raised, with round or sloped plaque edges; 3 points, obvious Score: The plaque is hypertrophic and the bulge is obvious; 4 points, very significant: it is highly thickened and the bulge is very obvious.
Skin proliferation inhibition rate (%)=1−[(skin thickness of the treatment group on the 7th day−skin thickness of the blank control group on the 7th day)/skin thickness of the negative control group on the 7th day−skin thickness of the blank control group on the 7th day)]%.
All data are expressed as Mean t SEM. The statistical analysis software SPSS23.0 was used to conduct normal distribution and homogeneity of variance tests on the data. Based on the results, the single-factor analysis of variance method was selected and the homogeneity of variance test was selected based on the results. *P<0.05 will be considered a statistically significant difference.

[5] = High humidity test (25° C., 90 ± 5% RH), 5 d
[6] = High humidity test (25° C., 90 ± 5% RH), 10 d
[7] = High humidity test (25° C., 90 ± 5% RH), 30 d
[8] = High temperature test (60° C.), 5 d
[9] = High temperature test (60° C.), 10 d
[10] = High temperature test (60° C.), 30 d
[11] = Light test (Illuminance 5000 Lx and UV lamp energy 0.9 W/m^2), 5 d
[12] = Light test (Illuminance 5000 Lx and UV lamp energy 0.9 W/m^2), 10 d
[13] = Light test (Illuminance 5000 Lx and UV lamp energy 0.9 W/m^2), 30 d
[14] = 0.5 mg/kg oral twice a day, Day 0
[15] = 0.5 mg/kg oral twice a day, Day 1
[16] = 0.5 mg/kg oral twice a day, Day 3
[17] = 0.5 mg/kg oral twice a day, Day 5
[18] = 0.5 mg/kg oral twice a day, Day 7
[19] = 1.5 mg/kg oral twice a day, Day 0
[20] = 1.5 mg/kg oral twice a day, Day 1
[21] = 1.5 mg/kg oral twice a day, Day 3
[22] = 1.5 mg/kg oral twice a day, Day 5
[23] = 1.5 mg/kg oral twice a day, Day 7
[24] = 1.5 mg/kg oral twice a day, Day 7, listed as crystalline form A
[25] = 5 mg/kg oral twice a day, Day 0
[26] = 5 mg/kg oral twice a day, Day 1
[27] = 5 mg/kg oral twice a day, Day 3
[28] = 5 mg/kg oral twice a day, Day 5
[29] = 5 mg/kg oral twice a day, Day 7
[30] = 5 mg/kg oral twice a day, Day 7, listed as crystalline form A

Structure (SMILES): C[C@@H](O)c1nc2cnc3[nH]ccc3c2n1N1CCC(CC#N)CC1 [Crystalline form A, (R)-2-(1-(2-(1-hydroxyethyl)imidazo[4,5-d]pyrrolo[2,3-b]pyridine-1(6H)-yl)piperidin-4-yl)acetonitrile]
- hygroscopicity class [1]: no or almost no hygroscopicity
- weight gain (hygroscopicity) [1]: 0.05%
- Content (%) ([2]; 0 d): 99.1%
- Total impurity ([2]; 0 d): 0.325%
- stability under accelerated test conditions (content, total impurities, XRPD) ([2]; 5000Lx light, 60° C., 90% RH±5% RH, 0, 5, 10, 30 days): better stability
- Content (%) [2, 5]: 100.1%
- Total impurity [2, 5]: 0.32%
- Content (%) [2, 6]: 100.1%
- Total impurity [2, 6]: 0.31%
- Content (%) [2, 7]: 100.1%
- Total impurity [2, 7]: 0.32%
- Content (%) [2, 8]: 100.2%
- Total impurity [2, 8]: 0.34%
- Content (%) [2, 9]: 100.4%
- Total impurity [2, 9]: 0.33%
- Content (%) [2, 10]: 100.3%
- Total impurity [2, 10]: 0.35%
- Content (%) [2, 11]: 99.5%
- Total impurity [2, 11]: 0.34%
- Content (%) [2, 12]: 98.9%
- Total impurity [2, 12]: 0.36%
- Content (%) [2, 13]: 99.4%
- Total impurity [2, 13]: 0.43%
- bioavailability in the body [3]: high bioavailability
- Inhibition rate of skin thickening ([4]; 0.5 mg/kg oral twice a day): 34.6%
- Average skin thickness (double layer) [4, 14]: 0.50 ± 0.01 mm
- PASI score [4, 14]: 0.0 points
- Average skin thickness (double layer) [4, 15]: 0.60 ± 0.01 mm
- PASI score [4, 15]: 0.0 points
- Average skin thickness (double layer) [4, 16]: 1.57 ± 0.11 mm
- PASI score [4, 16]: 6.6 ± 0.69 points
- Average skin thickness (double layer) [4, 17]: 1.27 ± 0.1*** mm
- PASI score [4, 17]: 5.9 ± 0.79** points
- Average skin thickness (double layer) [4, 18]: 1.32 ± 0.09 mm and 1.32 mm
- PASI score [4, 18]: 6.1 ± 0.56*** points
- PASI score ([4]; 0.5 mg/kg oral twice a day, Day 7, listed as crystalline form A): 6.1 points
- Inhibition rate of skin thickening ([4]; 1.5 mg/kg oral twice a day): 56.4%
- Inhibition rate of skin thickening ([4]; 1.5 mg/kg oral twice a day, listed as crystalline form A): 56.4%
- Average skin thickness (double layer) [4, 19]: 0.50 ± 0.01 mm
- PASI score [4, 19]: 0.0 points
- Average skin thickness (double layer) [4, 20]: 0.61 ± 0.02 mm
- PASI score [4, 20]: 0.0 points
- Average skin thickness (double layer) [4, 21]: 1.76 ± 0.15 mm
- PASI score [4, 21]: 6.1 ± 0.56 points
- Average skin thickness (double layer) [4, 22]: 1.53 ± 0.08** mm
- PASI score [4, 22]: 7.0 ± 0.53 points
- Average skin thickness (double layer) [4, 23]: 1.15 ± 0.04** mm and 1.15 mm
- PASI score [4, 23]: 4.9 ± 0.39*** points
- Average skin thickness (double layer) [4, 24]: 1.15 mm
- PASI score [4, 24]: 4.9 points
- Inhibition rate of skin thickening ([4]; 5 mg/kg oral twice a day): 71.8%
- Inhibition rate of skin thickening ([4]; 5 mg/kg oral twice a day, listed as crystalline form A): 71.8%
- Average skin thickness (double layer) [4, 25]: 0.50 ± 0.01 mm
- PASI score [4, 25]: 0.0 points
- Average skin thickness (double layer) [4, 26]: 0.64 ± 0.01 mm
- PASI score [4, 26]: 0.0 points
- Average skin thickness (double layer) [4, 27]: 1.35 ± 0.10* mm
- PASI score [4, 27]: 4.9 ± 0.48 points
- Average skin thickness (double layer) [4, 28]: 1.24 ± 0.11*** mm
- PASI score [4, 28]: 4.7 ± 0.58*** points
- Average skin thickness (double layer) [4, 29]: 1.03 ± 0.03*** mm and 1.03 mm
- PASI score [4, 29]: 3.6 ± 0.44*** points
- Average skin thickness (double layer) [4, 30]: 1.03 mm
- PASI score [4, 30]: 3.6 points
